The record followed here is patent publication US8420817B2, “Tricyclic N-heteroaryl-carboxamide derivatives, preparation and therapeutic use thereof” (Sanofi, priority 2007, dated 2013).

Data set [1] deals with T1, TRPV1 receptors (Mus musculus, UniProt Q704Y3).
T1 construct: from tissue; host or cells: living mice, hind paw (in vivo behavioural test)
The experiment in a line: Pain induced by intraplantar administration of capsaicin in mice. The settings on record: 30 mg/kg orally 120 minutes before intraplantar capsaicin, n=10. It counts as in vivo. As for the experimental part:
Pain Induced by Intraplantar Administration of Capsaicin in Mice
The intraplantar injection of capsaicin in mice rapidly produces a short-duration nociceptif behavior which is manifested in instances of licking, chewing and flexing of the treated paw. These nociceptive responses are probably linked to activation of the local TRPV1 receptors by the capsaicin.
(E)-capsaicin is initially diluted at 3 mg/ml in DMSO, then diluted again, for its final use, at 1.5 μg/20 μl in physiological saline. Administration of solvent has no effect at all on the behavior of the mouse. The capsaicin is injected into one of the hind paws of the animal, at the level of the upper face.
The compounds to be tested are administered orally 120 minutes prior to injection of capsaicin. […] The nociceptif behavior of the animals is then immediately evaluated by the person carrying out the experiment, and the duration of the behavioral manifestations induced by the capsaicin is recorded with a stop watch for a time of 2 minutes (licking and chewing, total or partial flexing of the injected paw).
For each compound an inhibition is determined which corresponds to the mean of the nociceptive responses induced by the capsaicin in response to a dose of test product (expressed in mg/kg) administered orally, on a sample of a specific number of mice (n).

Data set [2] deals with T2, TRPV1 receptor (Rattus norvegicus, UniProt O35433).
T2 construct: The neurons of the DRG naturally express the TRPV1 receptor; endogenous in cells; host or cells: primary culture of newborn rat dorsal root ganglion neurons
T2 sequence (O35433 whole entry): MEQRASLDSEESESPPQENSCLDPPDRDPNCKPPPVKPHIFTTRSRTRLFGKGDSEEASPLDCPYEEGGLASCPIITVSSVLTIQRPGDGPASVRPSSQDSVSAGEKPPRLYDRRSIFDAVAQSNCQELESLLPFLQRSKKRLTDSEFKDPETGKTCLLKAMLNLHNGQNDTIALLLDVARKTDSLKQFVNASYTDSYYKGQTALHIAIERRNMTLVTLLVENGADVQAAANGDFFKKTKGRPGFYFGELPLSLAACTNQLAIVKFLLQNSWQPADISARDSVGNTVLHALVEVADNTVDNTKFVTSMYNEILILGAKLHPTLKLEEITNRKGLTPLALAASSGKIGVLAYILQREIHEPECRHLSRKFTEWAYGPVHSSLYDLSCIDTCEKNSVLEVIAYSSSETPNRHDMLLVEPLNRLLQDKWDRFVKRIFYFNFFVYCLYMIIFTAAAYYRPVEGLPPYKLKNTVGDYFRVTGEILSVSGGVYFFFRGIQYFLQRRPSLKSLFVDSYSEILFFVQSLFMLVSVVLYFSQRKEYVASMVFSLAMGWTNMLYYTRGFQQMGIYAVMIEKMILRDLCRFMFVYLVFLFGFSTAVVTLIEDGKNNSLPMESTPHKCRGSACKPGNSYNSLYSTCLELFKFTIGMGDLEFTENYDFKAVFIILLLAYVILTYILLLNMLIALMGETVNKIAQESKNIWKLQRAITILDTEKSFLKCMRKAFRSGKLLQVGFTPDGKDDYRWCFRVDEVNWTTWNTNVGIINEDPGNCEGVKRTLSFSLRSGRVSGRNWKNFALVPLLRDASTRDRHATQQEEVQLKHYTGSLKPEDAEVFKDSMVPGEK
The data set is described as follows: Inhibition of the current induced by capsaicin on rat DRGs (whole-cell patch-clamp). It counts as cell-based. As to conditions: DRG neuron; compound at 10 nM; inhibition of the control capsaicin response; rat DRG neurons. As for the experimental part:
Test for Inhibition of the Current Induced by Capsaicin on Rat DRGs
• Primary culture of rat dorsal root ganglion (DRG) cells:
The neurons of the DRG naturally express the TRPV1 receptor.
Newborn rat DRG primary cultures are prepared from 1-day-old rat pups. Briefly, after dissection, the ganglia are trypsinized and the cells are mechanically dissociated by controlled trituration. The cells are resuspended in an Eagle's basal culture medium containing 10% of fetal calf serum, 25 mM KCl, 2 mM glutamine, 100 μg/ml gentamicin and 50 ng/ml of NGF, and then deposited onto laminin-coated glass cover slips (0.25×10^6 cells per cover slip) which are then placed in 12-well Corning dishes. The cells are incubated at 37° C. in a humidified atmosphere containing 5% CO2 and 95% air. […]
The measuring chambers (volume 800 μl) containing the cell preparation are placed on the platform of an inverted microscope (Olympus IMT2) equipped with Hoffman optics (Modulation Contrast, New York), and observed at the magnification of 400×. […] The overall currents (membrane potential fixed at −60 mV) are recorded with an Axopatch 1D amplifier (Axon Instruments, Foster City, Calif.), connected to a PC controlled by Pclamp8 software (Axon Instruments). The current traces are recorded on paper and simultaneously digitized (sampling frequency 15 to […]) and acquired on the hard drive of the PC. […]
In general terms: The patch-clamp technique gives a direct electrical read-out from membranes.

T1 sequence (Q704Y3 whole entry): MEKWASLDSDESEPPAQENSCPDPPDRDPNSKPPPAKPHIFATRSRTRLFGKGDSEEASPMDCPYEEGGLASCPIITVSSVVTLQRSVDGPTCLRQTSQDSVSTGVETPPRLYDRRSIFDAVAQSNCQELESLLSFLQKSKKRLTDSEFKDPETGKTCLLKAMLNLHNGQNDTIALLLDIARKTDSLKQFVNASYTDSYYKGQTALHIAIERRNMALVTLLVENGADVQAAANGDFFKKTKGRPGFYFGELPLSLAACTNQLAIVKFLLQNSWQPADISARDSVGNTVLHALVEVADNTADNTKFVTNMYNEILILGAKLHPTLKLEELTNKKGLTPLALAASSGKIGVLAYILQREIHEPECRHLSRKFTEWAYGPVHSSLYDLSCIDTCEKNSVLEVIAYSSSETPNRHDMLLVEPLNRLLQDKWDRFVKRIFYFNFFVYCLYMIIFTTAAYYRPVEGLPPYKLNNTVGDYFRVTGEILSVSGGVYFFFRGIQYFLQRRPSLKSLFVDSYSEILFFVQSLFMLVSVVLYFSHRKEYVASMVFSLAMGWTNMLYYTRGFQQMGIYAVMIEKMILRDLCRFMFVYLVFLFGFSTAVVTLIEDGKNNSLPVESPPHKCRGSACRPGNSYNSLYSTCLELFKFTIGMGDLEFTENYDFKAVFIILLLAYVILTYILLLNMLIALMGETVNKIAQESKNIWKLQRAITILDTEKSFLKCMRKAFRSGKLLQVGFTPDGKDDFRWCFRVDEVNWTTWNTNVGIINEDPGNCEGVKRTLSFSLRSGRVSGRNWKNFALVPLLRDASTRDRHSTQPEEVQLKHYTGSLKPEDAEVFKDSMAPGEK

One may read the melting point as the temperature, or range, at which the solid turns liquid. `O=C(Nc1cnc2c(c1)nc1n2CCC1O)c1cc2cc(C(F)(F)F)ccc2n1Cc1cccc(F)c1` (racemic) [Compound 29, N-(6-Hydroxy-7,8-dihydro-6H-pyrrolo[2′,1′:2,3]imidazo[4,5-b]pyridin-3-yl)-5-trifluoromethyl-1-(3-fluorobenzyl)-1H-indole-2-carboxamide] came in with a melting point of 254 to 255 °C. In data set [1], the “% inhibition of nociceptive responses induced by capsaicin” value is given as 63% (+/−11%).

For orientation: inhibition means how much of the control response was suppressed. `O=C(Nc1cnc2c(c1)nc1n2CCC1)c1cc2cc(F)ccc2n1Cc1cccc(F)c1` [Compound 1, N-(7,8-Dihydro-6H-pyrrolo[2′,1′:2,3]imidazo[4,5-b]pyridin-3-yl)-5-fluoro-1-(3-fluorobenzyl)-1H-indole-2-carboxamide] had a melting point of 227 to 229 °C. The inhibition at 0.01 µM in data set [2] was 69%.
